Earlier results as cited in patent publication US20210196661A1, “METHOD FOR AMELIORATION OF INSULIN RESISTANCE” (priority 2019, published 2021).

Tests used:
[1] = test system: integrated stress response (ISR); conditions: mice
[2] = in vivo

Structure (SMILES)	age-related memory impairment [1]	levels of ATF4 [1]	levels of phosphorylated eIF2a [1]	half life [2] [h]
O=C(COc1ccc(Cl)cc1)NC1CCC(NC(=O)COc2ccc(Cl)cc2)CC1 (stereo not shown) [ISM]	rapidly reverses	decreases	decreases	–
N[C@@H](Cc1cc(I)c(Oc2cc(I)c(O)c(I)c2)c(I)c1)C(=O)O [T4, L-thyroxine]	–	–	–	120 to 170
